Here are results for eight compounds from ChEMBL document CHEMBL1201862, “PubChem BioAssay data set” (2004).

Test [1] has as its target Ephrin type-A receptor 4 (Mus musculus, UniProt Q03137). Description: EphA4 ligand-binding antagonists – biochemical, colorimetric, mouse EphA4, primary screen (AID 689). The test is classed as functional.
Test [2] has as its target T1, Cytochrome P450 1A2 (Homo sapiens, UniProt P05177).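 Further: PubChem cytochrome P450 panel assay, CYP1A2 panel member.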
T1 sequence (P05177 whole entry): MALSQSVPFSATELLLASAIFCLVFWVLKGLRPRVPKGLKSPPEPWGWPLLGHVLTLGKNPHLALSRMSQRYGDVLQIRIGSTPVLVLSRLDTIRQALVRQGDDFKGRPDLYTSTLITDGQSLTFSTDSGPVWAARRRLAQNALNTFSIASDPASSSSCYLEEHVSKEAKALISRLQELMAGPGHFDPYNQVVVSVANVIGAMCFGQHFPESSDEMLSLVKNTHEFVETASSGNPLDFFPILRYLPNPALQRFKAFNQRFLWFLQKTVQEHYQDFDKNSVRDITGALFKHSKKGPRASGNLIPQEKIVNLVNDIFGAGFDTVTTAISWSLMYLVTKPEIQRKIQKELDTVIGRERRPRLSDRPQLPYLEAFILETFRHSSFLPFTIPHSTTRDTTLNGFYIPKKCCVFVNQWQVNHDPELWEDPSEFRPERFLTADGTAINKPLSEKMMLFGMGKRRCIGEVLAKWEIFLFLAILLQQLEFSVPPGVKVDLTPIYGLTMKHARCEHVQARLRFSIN

Test [3] addresses T2, Estrogen receptor (Homo sapiens, UniProt P03372).
T2 sequence (P03372 whole entry): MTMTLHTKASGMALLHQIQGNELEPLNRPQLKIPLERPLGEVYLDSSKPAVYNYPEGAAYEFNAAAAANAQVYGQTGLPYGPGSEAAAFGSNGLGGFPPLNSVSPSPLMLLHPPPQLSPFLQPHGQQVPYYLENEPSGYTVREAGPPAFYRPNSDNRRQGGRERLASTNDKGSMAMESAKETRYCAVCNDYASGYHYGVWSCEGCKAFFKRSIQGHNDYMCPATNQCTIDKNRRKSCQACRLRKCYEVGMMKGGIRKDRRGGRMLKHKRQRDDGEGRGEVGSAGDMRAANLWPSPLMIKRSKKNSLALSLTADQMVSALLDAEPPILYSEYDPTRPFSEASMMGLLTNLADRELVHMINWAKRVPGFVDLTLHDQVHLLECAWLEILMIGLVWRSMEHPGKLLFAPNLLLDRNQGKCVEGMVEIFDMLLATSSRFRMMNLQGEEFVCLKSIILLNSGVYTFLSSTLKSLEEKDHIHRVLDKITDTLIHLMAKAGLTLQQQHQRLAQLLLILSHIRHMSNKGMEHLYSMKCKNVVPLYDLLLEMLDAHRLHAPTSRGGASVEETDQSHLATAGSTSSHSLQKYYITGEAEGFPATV

In test [4] the target is Estrogen receptor beta (Homo sapiens, UniProt Q92731).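 Further: recombinant ER-beta bound to coactivator SRC1 peptide in presence of estradiol agonist; inhibitors block coactivator peptide binding and lower the FRET signal.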
For test [5], the target named is Heat shock protein HSP 90-alpha (Homo sapiens, UniProt P07900). Description: Luminescence-based dose response biochemical high throughput screening assay for inhibitors of the Heat Shock Protein 90 (HSP90). [Related pubchem assays: 1831 (Summary AID.), 1846 (Confirmation screen.), 1789 (Primary screen.)].
The target of test [6] is T3, Heat shock factor protein 1 (Mus musculus, UniProt P38532).
T3 sequence (P38532 whole entry): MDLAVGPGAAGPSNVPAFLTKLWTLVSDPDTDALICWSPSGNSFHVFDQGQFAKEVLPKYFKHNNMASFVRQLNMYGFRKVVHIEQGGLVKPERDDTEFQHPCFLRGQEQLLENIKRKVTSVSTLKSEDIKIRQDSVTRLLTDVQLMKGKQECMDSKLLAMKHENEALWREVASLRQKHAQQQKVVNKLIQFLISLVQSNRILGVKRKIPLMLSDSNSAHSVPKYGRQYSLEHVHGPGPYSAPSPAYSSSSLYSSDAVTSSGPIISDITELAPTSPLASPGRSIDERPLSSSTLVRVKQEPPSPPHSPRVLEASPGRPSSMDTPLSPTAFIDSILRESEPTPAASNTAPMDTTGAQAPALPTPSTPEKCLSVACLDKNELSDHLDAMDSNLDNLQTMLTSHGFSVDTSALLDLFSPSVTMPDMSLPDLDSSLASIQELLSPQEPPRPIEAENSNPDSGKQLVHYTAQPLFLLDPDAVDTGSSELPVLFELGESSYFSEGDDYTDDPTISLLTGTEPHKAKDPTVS
The test can be described thus: enhancement of HSF1-driven luciferase signal – cell-based, NIH3T3, luminescence, dose retest, confirmation (AID 435004).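 Further: stress induced by proteasome inhibitor MG132 added 30 min after compound; luciferase reporter driven by HSF1 response element in NIH3T3 cells; actives raise luminescence as potentiators of the MG132 stress response.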 The format is functional.

The target in test [7] is Sphingosine 1-phosphate receptor 2 (Homo sapiens, UniProt O95136). The test can be described thus: Dose Response Cell Based Assay for Agonists of the S1P2 Receptor. [Related pubchem assays: 729, 736, 843 ]. The test is classed as functional.
A short description of test [8]: Luminescent dose response cell-based high throughput screening assay for inhibitors of the Janus kinase 2 mutant JAK2V617F. [Related pubchem assays: 1446 (Primary screen.), 1521 (Confirmation assay.), 1486 (Counter screen.)]. The test is classed as functional. In general terms: A counterscreen serves to expose hits that act by an unwanted route or on another target.

Test [9] has as its target T4, Rac GTPase-activating protein 1 (Homo sapiens, UniProt Q9H0H5).
T4 sequence (Q9H0H5 whole entry): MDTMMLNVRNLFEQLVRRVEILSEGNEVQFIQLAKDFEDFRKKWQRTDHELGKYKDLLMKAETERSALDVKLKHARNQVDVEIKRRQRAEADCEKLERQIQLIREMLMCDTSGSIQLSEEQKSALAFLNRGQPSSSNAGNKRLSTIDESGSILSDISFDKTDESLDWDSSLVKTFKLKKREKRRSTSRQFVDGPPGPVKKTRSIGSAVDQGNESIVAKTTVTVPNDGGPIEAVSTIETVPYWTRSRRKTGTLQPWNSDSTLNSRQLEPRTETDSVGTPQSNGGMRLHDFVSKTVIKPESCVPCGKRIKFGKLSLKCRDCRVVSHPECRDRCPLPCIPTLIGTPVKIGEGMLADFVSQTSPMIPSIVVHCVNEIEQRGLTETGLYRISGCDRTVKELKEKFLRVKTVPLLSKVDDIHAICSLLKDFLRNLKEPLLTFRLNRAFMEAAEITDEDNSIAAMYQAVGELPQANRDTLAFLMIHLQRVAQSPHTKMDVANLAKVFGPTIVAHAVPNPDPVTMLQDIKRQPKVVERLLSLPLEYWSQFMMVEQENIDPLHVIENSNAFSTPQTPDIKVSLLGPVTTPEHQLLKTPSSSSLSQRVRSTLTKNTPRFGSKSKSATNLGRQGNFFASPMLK
The test can be described thus: blockers of MgcRacGAP-driven Rac1 GTP hydrolysis – biochemical, ADP Hunter fluorescence, primary and confirmatory, confirmation (AID 624330). The format is functional.

Test [10] in a line: viability loss in THP-1 monocytes – THP-1 cells, cytotoxicity control for Vif-APOBEC3G degradation inhibitor project, dose response (AID 1117359). The test is classed as functional. The following applies: THP-1.
The nature of test [11]: viability of uninfected HEp-2 cells – cell-based, HTS, cytotoxicity control for RSV inhibitor project, dose response (AID 2410). The test is classed as functional. The conditions noted are these: human respiratory syncytial virus.
Test [12] can be described thus: M. tuberculosis growth inhibition, HTS (AID 449762). The format is functional.
Test [13] is described as follows: microbe, parasite or virus in culture. The conditions noted are these: Mycobacterium tuberculosis. The format is functional.
Test [14] has as its target T5, Corticotropin-releasing factor receptor 2/Corticotropin-releasing factor-binding protein (Homo sapiens, UniProt P24387+Q13324).
T5 sequence (Q13324 whole entry): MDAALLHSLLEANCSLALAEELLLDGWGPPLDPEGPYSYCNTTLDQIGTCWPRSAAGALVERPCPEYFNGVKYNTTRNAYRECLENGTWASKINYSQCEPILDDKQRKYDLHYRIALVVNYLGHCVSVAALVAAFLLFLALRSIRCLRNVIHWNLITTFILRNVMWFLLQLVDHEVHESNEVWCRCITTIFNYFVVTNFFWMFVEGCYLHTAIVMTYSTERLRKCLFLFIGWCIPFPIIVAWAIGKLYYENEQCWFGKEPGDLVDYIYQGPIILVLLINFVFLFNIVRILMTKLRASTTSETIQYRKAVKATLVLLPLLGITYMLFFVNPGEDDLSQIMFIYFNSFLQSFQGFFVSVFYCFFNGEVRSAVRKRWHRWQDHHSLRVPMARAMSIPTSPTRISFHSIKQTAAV
T5 sequence (P24387 whole entry): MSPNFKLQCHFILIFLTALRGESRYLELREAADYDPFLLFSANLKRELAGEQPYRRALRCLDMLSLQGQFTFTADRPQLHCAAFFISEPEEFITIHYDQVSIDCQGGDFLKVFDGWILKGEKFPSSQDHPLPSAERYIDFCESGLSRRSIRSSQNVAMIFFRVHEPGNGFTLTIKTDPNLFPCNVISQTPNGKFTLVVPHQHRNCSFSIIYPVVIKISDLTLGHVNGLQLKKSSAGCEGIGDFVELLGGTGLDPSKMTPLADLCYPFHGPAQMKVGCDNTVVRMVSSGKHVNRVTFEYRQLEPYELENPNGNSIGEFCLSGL
The test can be described thus: Dose Response confirmation of uHTS hits for small molecule antagonists of the CRF-binding protein and CRF-R2 receptor complex. The conditions noted are these: read-out: IC50_Mean. The format is functional.

Test [15] concerns the target T5, Corticotropin-releasing factor receptor 2/Corticotropin-releasing factor-binding protein. Description: activators of CRF receptor 2 with binding protein – uHTS hits, confirmation (AID 602473). The test is classed as functional. The conditions noted are these: read-out: EC50_Mean.
Test [16] in a line: rise of 2N DNA cells, HeLa – IC50, dose response (AID 1117349). The test is classed as functional, cell-based.
Test [17] in a line: CellTiter-Glo luminescence survival assay, SW480 colon tumor line, concentration-response curve, half-maximal inhibitory concentration (AID 1117338). The format is functional. (In general: Cellular ATP, detected with luciferase, serves as a proxy for viable cell number.)
Test [18] can be described thus: RKO cell viability reduction, dose response, CellTiter-Glo luminescence (AID 1117322). The format is functional.
Test [19] in a line: cytotoxicity toward HCT116 cells – cell-based, CellTiter-Glo luminescence, IC50, dose response (AID 1117332). The format is functional. The conditions noted are these: HCT-116.
The nature of test [20]: SNU-C1 cell viability reduction, dose response, CellTiter-Glo luminescence (AID 1117323). The test is classed as functional, cell-based.
Test [21] can be described thus: cytotoxicity toward Colo320 cells – cell-based, CellTiter-Glo luminescence, IC50, dose response (AID 1117334). The format is functional. The following applies: COLO 320.
A short description of test [22]: rise of 4N DNA cells, HeLa – IC50, dose response (AID 1117351). The format is functional, cell-based.
A short description of test [23]: cytotoxicity toward HT-29 cells – cell-based, CellTiter-Glo luminescence, IC50, dose response (AID 1117330). The format is functional.
Test [24] can be described thus: Reduced DLD-1 viability, concentration-response, CellTiter-Glo luminescence (AID 1117352). The format is functional.

Active and inactive are the calls of the source. Bounds are passed on as bounds.

Ephrin type-A receptor 4, sequence (Q03137 whole entry): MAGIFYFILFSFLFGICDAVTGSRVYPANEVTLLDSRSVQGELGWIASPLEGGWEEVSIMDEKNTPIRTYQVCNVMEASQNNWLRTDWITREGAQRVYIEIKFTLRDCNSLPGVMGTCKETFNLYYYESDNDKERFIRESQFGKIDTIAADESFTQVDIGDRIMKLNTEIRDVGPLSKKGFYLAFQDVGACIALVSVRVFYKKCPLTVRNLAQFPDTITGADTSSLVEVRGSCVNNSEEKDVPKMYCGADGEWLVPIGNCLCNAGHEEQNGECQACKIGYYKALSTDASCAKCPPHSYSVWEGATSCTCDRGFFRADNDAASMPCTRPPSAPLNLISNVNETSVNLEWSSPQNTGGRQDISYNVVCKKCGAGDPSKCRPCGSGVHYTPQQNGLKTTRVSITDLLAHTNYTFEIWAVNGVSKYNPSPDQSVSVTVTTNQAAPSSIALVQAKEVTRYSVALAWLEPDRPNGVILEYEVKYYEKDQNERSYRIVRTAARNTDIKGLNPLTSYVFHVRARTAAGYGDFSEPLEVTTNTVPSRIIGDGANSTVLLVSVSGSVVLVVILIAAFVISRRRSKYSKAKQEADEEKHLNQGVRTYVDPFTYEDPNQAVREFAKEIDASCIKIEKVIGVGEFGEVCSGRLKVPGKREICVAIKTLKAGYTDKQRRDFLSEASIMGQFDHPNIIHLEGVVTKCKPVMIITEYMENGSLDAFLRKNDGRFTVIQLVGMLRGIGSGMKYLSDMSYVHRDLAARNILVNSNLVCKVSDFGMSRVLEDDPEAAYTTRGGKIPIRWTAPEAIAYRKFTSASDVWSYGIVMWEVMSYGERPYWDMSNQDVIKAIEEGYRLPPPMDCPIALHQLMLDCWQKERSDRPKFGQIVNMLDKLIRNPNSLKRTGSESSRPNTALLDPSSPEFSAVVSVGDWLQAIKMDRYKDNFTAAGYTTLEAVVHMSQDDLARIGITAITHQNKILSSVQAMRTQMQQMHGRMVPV
Sphingosine 1-phosphate receptor 2, sequence (O95136 whole entry): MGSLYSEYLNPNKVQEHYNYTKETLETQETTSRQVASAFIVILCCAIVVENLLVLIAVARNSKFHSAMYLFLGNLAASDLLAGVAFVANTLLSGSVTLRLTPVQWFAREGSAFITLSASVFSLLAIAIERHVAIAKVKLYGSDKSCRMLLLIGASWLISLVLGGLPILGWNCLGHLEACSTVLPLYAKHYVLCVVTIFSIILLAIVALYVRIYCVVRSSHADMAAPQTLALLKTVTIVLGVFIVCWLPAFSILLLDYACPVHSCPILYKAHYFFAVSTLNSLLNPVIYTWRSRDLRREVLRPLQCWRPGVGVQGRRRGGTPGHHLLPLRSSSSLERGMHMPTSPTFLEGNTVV
Estrogen receptor beta, sequence (Q92731 whole entry): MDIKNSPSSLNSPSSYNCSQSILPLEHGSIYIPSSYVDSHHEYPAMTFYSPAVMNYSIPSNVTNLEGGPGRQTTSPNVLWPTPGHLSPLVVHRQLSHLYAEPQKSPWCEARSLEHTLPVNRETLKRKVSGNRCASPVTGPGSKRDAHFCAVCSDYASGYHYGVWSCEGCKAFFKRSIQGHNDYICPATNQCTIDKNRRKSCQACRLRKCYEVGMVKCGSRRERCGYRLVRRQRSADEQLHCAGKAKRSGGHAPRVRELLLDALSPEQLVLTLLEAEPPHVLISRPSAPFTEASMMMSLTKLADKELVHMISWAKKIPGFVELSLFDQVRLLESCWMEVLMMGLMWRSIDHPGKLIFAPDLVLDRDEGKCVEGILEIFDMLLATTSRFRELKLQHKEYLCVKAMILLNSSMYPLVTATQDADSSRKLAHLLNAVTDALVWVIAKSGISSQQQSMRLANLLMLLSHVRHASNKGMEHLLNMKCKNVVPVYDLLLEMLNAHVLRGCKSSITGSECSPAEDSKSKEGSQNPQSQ

What is called AC50 is the concentration giving half of the maximal activity seen. For the compound `Brc1ccc(-c2nnc(-c3cccc(Br)c3)o2)cc1`, the IC50 in [1] is reported as > 100 µM (not active). Besides, in test [2], the AC50 was 0.316 µM (inconclusive).

For `Cn1nc([N+](=O)[O-])c2c(-c3nc4ccccc4s3)c(N)n(C3CCCCC3)c2c1=O`, the IC50 in test [3] is 4.98 µM (active); in [4], 6.01 µM (active).

`CCC(=O)Nc1ccccc1C(=O)OCC(=O)c1ccccc1`: the IC50 in [5] is 2.13 µM (active). In addition, the EC50 in [6] was 46.9 µM (active).

Consider `Cc1cccc2cc(C(c3nnnn3CC3CCCO3)N3CCc4ccccc4C3)c(=O)[nH]c12` (stereo not given), for which, in [7], the EC50 is > 50 µM (not active).

Turning to `COC(=O)NCCOC(=O)N(O)c1ccc(Br)cc1`, the IC50 in test [5] is listed as 16.7 µM (not active).

On to `O=C(/C=C/c1ccc(O)c(O)c1)c1ccc(S(=O)(=O)N2CCCCCC2)cc1`, for which the IC50 is 0.835 µM (active) in [8] and 82 µM (active) in [9]. The CC50 in test [10] was 26.3 µM (active).

For `Cc1nn(-c2ccccc2)c(N2CCCC2)c1/C=N/Nc1ccc(S(N)(=O)=O)cc1[N+](=O)[O-]`, the CC50 in test [11] is 33.2 µM (active); in test [13], > 40 µM (active). In addition, the IC50 in test [12] is > 100 µM (active); in [14] it was > 47.1 µM (inactive). For the same compound, the EC50 in [15] is > 53 µM (inactive).

In the case of `O=C1C(O)=C([C@H]2CC[C@H](c3ccc(Cl)cc3)CC2)C(=O)c2ccccc21` [ATOVAQUONE], the IC50 was > 10 µM (inactive) in test [16]; 0.0946 µM (active) in [17]; 0.114 µM (active) in test [18]; 0.138 µM (active) in [19]; 0.368 µM (active) in test [20]; 0.176 µM (active) in test [21]. Besides, the IC50 was > 10 µM (inactive) in test [22], 0.411 µM (active) in [23] and 0.0838 µM (active) in test [24].
